Like-named read-outs stand apart in the source and are kept apart here.

Here are results for one substance from patent US11408891B2, “Imaging agent” (University of Lancaster, priority 2017, dated 2022).

One experiment relates to HaCaT cells. The settings on record: HaCaT cells with and without microtubule-depolymerising levels of nocodazole (FIG. 2). The protocol: HaCaT cells were grown on glass coverslips under the same conditions as in described in Steel 2015 referred to herein. […] The coverslips were then washed in PBS and mounted by inversion on a glass slide. Images were captured on a Zeiss LSM 850 Meta laser scanning confocal microscope.

Experiment [1] deals with peroxisomes (pDsRed2-Peroxi Vector labelled compartments). The note with it: photo-bleaching at 514 nm, complex excited at 405 nm (FIG. 4). As to the method:
FIG. 4: Co-localisation experiment with Clontech pDsRed2-Peroxi Vector. […] Fluorescence micrographs of co-localisation experiment i) Excited at 405 nm pre-photo-bleaching; ii) excited at 514 nm pre photo-bleaching iii) excited at 514 nm post photo-bleaching; iv) Excited at 405 nm post photo-bleaching. HaCaT cells were grown on glass coverslips under the same conditions as in described in Steel 2015 referred to herein. […] The coverslips were then washed in PBS and mounted by inversion on a glass slide. Images were captured on a Zeiss LSM 850 Meta laser scanning confocal microscope.

The subject of experiment [2] is peroxisomes in HaCaT cells. As to the method:
FIG. 1: Chemical structure of a compound of the invention (and the compound referred to in the figures for example as the platinum complex) and confocal micrograph of HaCaT cells after 10 minutes exposure to 25 μg/ml of the platinum complex (ex 405 nm, emission 505-740 nm). […] A compound of the invention may be prepared as a salt, for example as a sodium salt as described herein, and is used as an imaging agent in a buffer solution. HaCaT cells were grown on glass coverslips under the same conditions as in described in Steel 2015 referred to herein. […] The coverslips were then washed in PBS and mounted by inversion on a glass slide. Images were captured on a Zeiss LSM 850 Meta laser scanning confocal microscope.

[3] abbreviates: PBS containing compound at 125 μg/ml, 10 minutes at 4° C.

As to PtMe3bpy-S-glutathione [compound A], the “motility of the stained compartments” value in the experiment with HaCaT cells is “microtubule-dependent motility”. Also, the “co-localisation with peroxisome marker” value in experiment [1] is “platinum complex emission was retained in the same cellular compartments”. Besides, the staining pattern result in experiment [2] (10 minutes exposure to 25 μg/ml, ex 405 nm, emission 505-740 nm (FIG. 1)) is on record as “punctate pattern”. In experiment [2] (setting [3]), the staining pattern entry is on record as “punctate staining pattern, characteristic of peroxisomes” and the uptake by cells entry is recorded as “readily taken up by cells”.
